In US5185340A, “Pyrimidinyl arylalkyl ethers with antihypertensive activity” (American Home Products Corporation, priority 1992, dated 1993):

Legend:
angiotensin II receptor = assay: Rat adrenal receptor binding assay, displacement of radiolabeled angiotensin II; design: species or system rat (male Sprague-Dawley); details: rat adrenal cortex membranes; 125I-A II 1 nM; read-out: Inhibition of 125I-Angiotensin II binding, IC50
Description: The high affinity of the compounds for the angiotensin II receptor was established using a rat adrenal receptor binding assay, measuring the displacement of radiolabeled angiotensin II (A II) from the receptor, described as follows: Anesthetize male Sprague-Dawley rats (300-400 g body weight) with CO2 and sacrifice by cervical dislocation. Dissect adrenal glands and keep in ice-cold sucrose buffer. (0.2M sucrose, 1 mM EDTA, 10 mM Trizma base, pH=7.2). Remove medulla by squashing. Mince the cortex, rinse and homogenize in a chilled ground glass tissue grinder with 15 ml sucrose buffer. Centrifuge at 3000× g for 10 min. (Sorvall RCSC centrifuge, SS34 rotor 6200 rpm). Decant supernatant through gauze. Centrifuge combined supernatants at 12000× g for 13 min. (Beckman ultracentrifuge, 80Ti rotor, 13000 rpm). Centrifuge the supernatant from the previous step at 102000× g for 60 min. (Beckman ultracentrifuge,80Ti rotor, 38200 rpm). All steps are carried out at 4° C. Resuspend the pellet in 0.5 mL assay buffer (50 mM Tris HCI, 5 mM MgCl2, 0.2% BSA (proteasefree), pH=7.4, 25° C.). Store on ice. Determine membrane protein by Lowry or Bradford assay with BSA as standard. The binding assay is performed in triplicate, in 12×75 mm plastic test tubes or in 96-well plate (final volume of 0.25 mL). Add 140 μL assay buffer. […] Calculate the quantities of hot A II and the cold A II needed and make the dilution. […]

[1] = test system: Angiotensin II infused rat; assay: Reduction of blood pressure in Angiotensin II infused rat; format: in vivo; details: 3 mg/kg/ml via duodenal cannula
Description: In accordance with their ability to antagonize angiotensin II, the compounds of this invention show antihypertensive action in the following A II-infused rat model. Rats are anesthetized with Dial-Urethane (0.60 mL/kg, ip) and the trachea cannulated with PE 240. Either one femoral artery and both femoral veins or the carotid artery and the corresponding jugular vein are cannulated with PE 50. If the jugular vein is cannulated, two cannulas are placed in the one vein. The initial portion of the duodenum (just distal to the stomach) is cannulated with PE 50 via a small midline incision. Arterial pressure and heart rate are measured from the arterial cannula. Ten to 15 min are allowed following surgery for stabilization of arterial pressure. Ganglion blockade is then produced by intravenous administration of mecamylamine at 3 mg/kg (1 mL/kg of a 3 mg/mL solution). Ganglion blockade causes a fall in arterial pressure of about 50 mmHg. Mecamylamine is given every 90 min throughout the remainder of the experiment. An A II infusion is then begun into the other venous cannula at 0.25 μg/kg/min (at […]). The A II infusion returns arterial pressure to or slightly above the control level. Once arterial pressure has stabilized with the A II infusion, baseline values for mean arterial pressure (MAP) and heart rate are taken. The test compound, suspended in methyl cellulose, is then administered via the duodenal cannula at 0.1, 3 or, 30 mg/kg in a volume of 1 mL/kg. Mean arterial pressure and heart rate values are tabulated at 15, 30, 60, 90, 120, 150, 180, 210, and 240 min after administration of the test compound.

Compound	IC50 (angiotensin II receptor)	% decrease in MAP ([1]; 15 min)	% decrease in MAP ([1]; 90 min)	% decrease in MAP ([1]; 240 min)
CCCc1c(CC)nc(C(F)(F)F)nc1OCc1ccc(-c2ccccc2-c2nnn[nH]2)cc1 [Example 4, 6-Ethyl-5-propyl-4-[[2'-(1H-tetrazol-5-yl)[1,1'-biphenyl]-4-yl]methoxy]-2-(trifluoromethyl)pyrimidine]	0.2 µM			
FC(F)(F)c1nc2c(c(OCc3ccc(-c4ccccc4-c4nnn[nH]4)cc3)n1)CCCC2 [Example 5, 4-[[2'-(1H-Tetrazol-5-yl)-biphenyl-4-yl]methoxy]-2-trifluoromethyl-5,6,7,8-tetrahydroquinazoline]	0.038 µM	22%	15%	0%
